Data published in patent US20240043404A1 (AbbVie Inc., priority 2009, published 2024).

Test system: RS4;11 cells
Test: RS4;11 cell viability assay (CellTiter Glo);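 further: acute lymphoblastic leukemia line RS4,11, EC50 derived from percentage of viable cells after treatment relative to untreated controls, cell killing taken as a measure of Bcl-2 inhibition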
Type: cell-based, human
Details: Homo sapiens, RS4-11, 48 h, 50,000 cells per well, 10% human serum, 48 hours; read-out: RS4; 11 EC50 Values
Description: The acute lymphoblastic leukemia (ALL) cell line RS4;11 was used as the primary human cell line to assess the cellular activity of Bcl-2 selective agents in vitro and their efficacy in vivo.
Cell cytotoxicity EC50 values were assessed using CellTiter Glo (Promega) according to the manufacturer's recommendations. The EC50 values were determined as a percentage of viable cells following treatment compared to the untreated control cells.

Structure (SMILES)	EC50 [nM]
COCCOCCN1CC[C@@H](Nc2ccc(S(=O)(=O)NC(=O)c3ccc(N4CCN(CC5=C(c6ccc(Cl)cc6)CC(C)(C)CC5)CC4)cc3Oc3cnc4[nH]ccc4c3)cc2[N+](=O)[O-])C1 [Example 254, 4-(4-{[2-(4-chlorophenyl)-4,4-dimethylcyclohex-1-en-1-yl]methyl}piperazin-1-yl)-N-{[4-({(3R)-1-[2-(2-methoxyethoxy)ethyl]pyrrolidin-3-yl}amino)-3-nitrophenyl]sulfonyl}-2-(1H-pyrrolo[2,3-b]pyridin-5-yloxy)benzamide]	19.9
CC1(C)CCC(CN2CCN(c3ccc(C(=O)NS(=O)(=O)c4ccc(NC5CN(C6COC6)C5)c([N+](=O)[O-])c4)c(Oc4cnc5[nH]ccc5c4)c3)CC2)=C(c2ccc(Cl)cc2)C1 [Example 256, 4-(4-{[2-(4-chlorophenyl)-4,4-dimethylcyclohex-1-en-1-yl]methyl}piperazin-1-yl)-N-[(3-nitro-4-{[1-(oxetan-3-yl)azetidin-3-yl]amino}phenyl)sulfonyl]-2-(1H-pyrrolo[2,3-b]pyridin-5-yloxy)benzamide]	18
CC1(C)CCC(CN2CCN(c3ccc(C(=O)NS(=O)(=O)c4cnc(OCC5(F)CCN(CC#N)CC5)c(Cl)c4)c(Oc4cnc5[nH]ccc5c4)c3)CC2)=C(c2ccc(Cl)cc2)C1 [Example 257, N-[(5-chloro-6-{[1-(cyanomethyl)-4-fluoropiperidin-4-yl]methoxy}pyridin-3-yl)sulfonyl]-4-(4-{[2-(4-chlorophenyl)-4,4-dimethylcyclohex-1-en-1-yl]methyl}piperazin-1-yl)-2-(1H-pyrrolo[2,3-b]pyridin-5-yloxy)benzamide]	26

Further compounds by falling EC50, results first:

EC50 [nM]	Structure (SMILES)
918	CC1(C)CCC(CN2CCN(c3ccc(C(=O)NS(=O)(=O)c4ccc(OCC5(F)CCOCC5)nc4)c(Oc4cnc5[nH]ccc5c4)c3)CC2)=C(c2ccc(Cl)cc2)C1 [Example 251, 4-(4-{[2-(4-chlorophenyl)-4,4-dimethylcyclohex-1-en-1-yl]methyl}piperazin-1-yl)-N-({6-[(4-fluorotetrahydro-2H-pyran-4-yl)methoxy]pyridin-3-yl}sulfonyl)-2-(1H-pyrrolo[2,3-b]pyridin-5-yloxy)benzamide]
49.6	CC1(C)CCC(CN2CCN(c3ccc(C(=O)NS(=O)(=O)c4cnc(OCC5CCN(CC#N)CC5)c(Cl)c4)c(Oc4cnc5[nH]ccc5c4)c3)CC2)=C(c2ccc(Cl)cc2)C1 [Example 253, N-[(5-chloro-6-{[1-(cyanomethyl)piperidin-4-yl]methoxy}pyridin-3-yl)sulfonyl]-4-(4-{[2-(4-chlorophenyl)-4,4-dimethylcyclohex-1-en-1-yl]methyl}piperazin-1-yl)-2-(1H-pyrrolo[2,3-b]pyridin-5-yloxy)benzamide]
9	CN(C)CC(=O)N1CC[C@@H](Nc2ccc(S(=O)(=O)NC(=O)c3ccc(N4CCN(CC5=C(c6ccc(Cl)cc6)CC(C)(C)CC5)CC4)cc3Oc3cnc4[nH]ccc4c3)cc2[N+](=O)[O-])C1 [Example 255, 4-(4-{[2-(4-chlorophenyl)-4,4-dimethylcyclohex-1-en-1-yl]methyl}piperazin-1-yl)-N-[(4-{[(3R)-1-(N,N-dimethylglycyl)pyrrolidin-3-yl]amino}-3-nitrophenyl)sulfonyl]-2-(1H-pyrrolo[2,3-b]pyridin-5-yloxy)benzamide]
3.47	CC1(C)CCC(CN2CCN(c3ccc(C(=O)NS(=O)(=O)c4ccc(NCC5CN(C(CF)CF)CCO5)c([N+](=O)[O-])c4)c(Oc4cnc5[nH]ccc5c4)c3)CC2)=C(c2ccc(Cl)cc2)C1 (stereo not shown) [Example 252, 4-(4-{[2-(4-chlorophenyl)-4,4-dimethylcyclohex-1-en-1-yl]methyl}piperazin-1-yl)-N-{[4-({[4-(1,3-difluoropropan-2-yl)morpholin-2-yl]methyl}amino)-3-nitrophenyl]sulfonyl}-2-(1H-pyrrolo[2,3-b]pyridin-5-yloxy)benzamide]
